Like-named read-outs stand apart in the source and are kept apart here.
How the values were obtained:
[1] = target: T1, human dopamine transporter (hDAT) (Homo sapiens, UniProt Q01959); test: biochemical; format: binding
[2] = target: T2, human serotonin transporter (hSERT) (Homo sapiens, UniProt P31645); test: biochemical; settings: [125I]RTI-55, read-out: SERT binding affinity Ki
[3] = target: T3, human norepinephrine transporter (hNET) (Homo sapiens, UniProt P23975); test: biochemical; settings: read-out: NET binding affinity Ki
[4] = target: T1, human dopamine transporter (hDAT); test: cell-based
[5] = target: T2, human serotonin transporter (hSERT); test: cell-based
[6] = target: T3, human norepinephrine transporter (hNET); test: cell-based; settings: read-out: Reuptake Inhibition [3H]NE IC50
[7] = Table 5, [125I]RTI-55, oxalate salts
[8] = Reuptake Inhibition [3H]DA IC50, Table 6
[9] = Reuptake Inhibition [3H]5-HT IC50, Table 6
[10] = Table 4, [125I]RTI-55, read-out: DAT binding affinity Ki
[11] = Table 4-1, read-out: Reuptake Inhibition [3H]DA IC50
[12] = Table 4-1, read-out: Reuptake Inhibition [3H]5-HT IC50

T2 sequence (P31645 whole entry): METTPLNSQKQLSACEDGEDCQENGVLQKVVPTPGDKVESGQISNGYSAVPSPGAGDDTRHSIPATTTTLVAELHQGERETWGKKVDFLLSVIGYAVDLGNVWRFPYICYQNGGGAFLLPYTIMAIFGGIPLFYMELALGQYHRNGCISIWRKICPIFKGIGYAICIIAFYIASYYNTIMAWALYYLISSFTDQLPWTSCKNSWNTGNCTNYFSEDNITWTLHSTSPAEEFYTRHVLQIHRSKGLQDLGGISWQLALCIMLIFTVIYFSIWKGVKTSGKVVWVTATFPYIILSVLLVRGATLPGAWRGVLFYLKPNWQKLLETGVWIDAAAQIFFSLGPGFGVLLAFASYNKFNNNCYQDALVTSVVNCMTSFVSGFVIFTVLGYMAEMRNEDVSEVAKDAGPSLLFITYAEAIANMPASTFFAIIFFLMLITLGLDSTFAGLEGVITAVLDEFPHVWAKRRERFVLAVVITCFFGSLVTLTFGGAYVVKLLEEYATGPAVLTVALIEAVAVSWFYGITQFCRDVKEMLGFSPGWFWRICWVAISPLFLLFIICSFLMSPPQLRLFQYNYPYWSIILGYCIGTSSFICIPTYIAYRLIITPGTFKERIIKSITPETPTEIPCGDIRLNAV
T3 sequence (P23975 whole entry): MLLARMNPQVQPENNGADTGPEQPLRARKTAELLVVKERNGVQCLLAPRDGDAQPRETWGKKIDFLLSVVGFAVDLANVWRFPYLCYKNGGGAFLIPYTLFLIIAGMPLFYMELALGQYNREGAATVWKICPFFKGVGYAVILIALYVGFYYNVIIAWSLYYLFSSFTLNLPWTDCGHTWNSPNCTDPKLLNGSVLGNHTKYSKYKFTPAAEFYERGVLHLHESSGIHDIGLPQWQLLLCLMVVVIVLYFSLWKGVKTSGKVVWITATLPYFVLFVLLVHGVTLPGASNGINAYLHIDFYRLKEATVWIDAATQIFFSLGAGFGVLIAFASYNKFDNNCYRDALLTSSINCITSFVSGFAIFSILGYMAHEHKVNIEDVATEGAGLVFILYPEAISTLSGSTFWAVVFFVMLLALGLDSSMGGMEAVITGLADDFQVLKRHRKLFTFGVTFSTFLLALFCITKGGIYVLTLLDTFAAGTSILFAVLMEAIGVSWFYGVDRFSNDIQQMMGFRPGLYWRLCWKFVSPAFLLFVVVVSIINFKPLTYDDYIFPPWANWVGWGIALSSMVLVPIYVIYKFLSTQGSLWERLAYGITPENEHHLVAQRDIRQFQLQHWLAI
T1 sequence (Q01959 whole entry): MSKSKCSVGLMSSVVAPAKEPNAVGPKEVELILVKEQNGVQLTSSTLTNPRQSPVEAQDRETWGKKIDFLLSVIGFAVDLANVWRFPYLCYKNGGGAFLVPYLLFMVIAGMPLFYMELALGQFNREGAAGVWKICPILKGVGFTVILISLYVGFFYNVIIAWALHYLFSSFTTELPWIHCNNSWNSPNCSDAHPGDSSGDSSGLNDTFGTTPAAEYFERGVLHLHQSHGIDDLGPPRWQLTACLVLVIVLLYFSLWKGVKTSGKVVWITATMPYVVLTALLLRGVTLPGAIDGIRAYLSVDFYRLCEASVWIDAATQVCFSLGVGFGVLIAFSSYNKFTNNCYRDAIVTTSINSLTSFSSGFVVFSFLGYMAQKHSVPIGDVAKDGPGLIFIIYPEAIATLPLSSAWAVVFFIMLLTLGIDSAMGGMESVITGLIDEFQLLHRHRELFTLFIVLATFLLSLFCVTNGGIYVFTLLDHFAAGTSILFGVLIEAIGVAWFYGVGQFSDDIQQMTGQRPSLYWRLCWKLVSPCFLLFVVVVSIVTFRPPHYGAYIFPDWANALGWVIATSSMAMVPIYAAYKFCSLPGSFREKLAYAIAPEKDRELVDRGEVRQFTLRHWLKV

O=[N+]([O-])c1ccc(N2CCN(CCCCOC(c3ccc(F)cc3)c3ccc(F)cc3)CC2)cc1 [Compound 38, 1-[4-Nitrophenyl]-4-[1-[bis(4-fluorophenyl)methoxy]-4-butyl]piperazine]
Ki [1]: 60 ± 19 nM | Binding Ratios NET/DAT ([1]; Table 5): 4.0 | Binding Ratios SERT/DAT ([1]; Table 5): 2.6 | Ki ([2]; Table 5, oxalate salts): 154 ± 44 nM | Ki [3, 7]: 0.239 ± 0.013 µM | IC50 [4, 8]: 2350 ± 540 nM | Discrimination Ratios (DR) [3H]DA reuptake/DAT binding ([4]; Table 6): 39.2 | IC50 [5, 9]: 0.39 ± 0.13 µM | IC50 ([6]; Table 6): 0.23 ± 0.11 µM

NCC1CCCN(CCCCOC(c2ccc(F)cc2)c2ccc(F)cc2)C1 (centres unmarked) [Compound 10]
Ki [1]: 113 nM | Binding Ratios NET/DAT ([1]; Table 2): 4.8 | Binding Ratios SERT/DAT ([1]; Table 2): 7.8 | Ki ([2]; Table 2): 883 nM | Ki ([3]; Table 2, [125I]RTI-55): 0.537 ± 0.112 µM | IC50 ([4]; Reuptake Inhibition [3H]DA IC50, Table 2-1): 31 nM | Discrimination Ratios [3H]DA reuptake/DAT binding ([4]; Table 2-1): 0.3 | IC50 ([5]; Reuptake Inhibition [3H]5-HT IC50, Table 2-1): 0.571 ± 0.127 µM

CC(=O)c1ccc(N2CCN(CCCCOC(c3ccc(F)cc3)c3ccc(F)cc3)CC2)cc1 [Compound 37, 1-[4-[4-[4-[Bis(4-fluorophenyl)methoxy]butyl]piperazin-1-yl]phenyl]ethanone]
Ki [1]: 27 ± 8.6 nM | Binding Ratios NET/DAT ([1]; Table 5): 4.1 | Binding Ratios SERT/DAT ([1]; Table 5): 1.6 | Ki ([2]; Table 5, oxalate salts): 42 ± 16 nM | Ki [3, 7]: 0.112 ± 0.038 µM | IC50 [4, 8]: 3010 ± 8.6 nM | Discrimination Ratios (DR) [3H]DA reuptake/DAT binding ([4]; Table 6): 111.5 | IC50 [5, 9]: 1.23 ± 0.54 µM | IC50 ([6]; Table 6): 0.033 ± 0.015 µM

O=C1CN(CCCCOC(c2ccc(F)cc2)c2ccc(F)cc2)CCN1 [Compound 27, 2-Oxo-4-[4-[bis(4-fluorophenyl)methoxy]butyl]piperazine]
Binding Ratios NET/DAT ([1]; Table 5): >2.4 | Binding Ratios SERT/DAT ([1]; Table 5): 0.4 | Ki ([1]; Table 5, [125I]RTI-55, oxalate salts, read-out: DAT binding affinity Ki): 4100 ± 790 nM | Ki ([2]; Table 5, oxalate salts): 1800 ± 450 nM | Ki ([3]; Table 5, bound given in μM): > 10 µM | Discrimination Ratios (DR) [3H]DA reuptake/DAT binding ([4]; Table 6): 0.6 | IC50 ([4]; Table 6, read-out: Reuptake Inhibition [3H]DA IC50): 2290 ± 200 nM | IC50 ([5]; Table 6, read-out: Reuptake Inhibition [3H]5-HT IC50): 5.34 ± 0.95 µM | IC50 ([6]; Table 6, bound given in μM): > 10 µM

Fc1ccc(C(OCCCCN2CCN(c3ccc(F)cc3)CC2)c2ccc(F)cc2)cc1 [Compound 31, 1-(4-Fluorophenyl)-4-[4-[bis(4-fluorophenyl)methoxy]butyl]piperazine]
Binding Ratios NET/DAT ([1]; Table 5): 7.8 | Binding Ratios SERT/DAT ([1]; Table 5): 1.3 | Discrimination Ratios (DR) [3H]DA reuptake/DAT binding ([4]; Table 6): 23

O=C(NS(=O)(=O)c1ccc(F)cc1)N1CCN(CCCCOC(c2ccc(F)cc2)c2ccc(F)cc2)CC1 [Compound 7]
Binding Ratios NET/DAT ([1]; Table 1): 8.1 | Binding Ratios SERT/DAT ([1]; Table 1): 9.5 | Ki ([1]; Table 1, [125I]RTI-55, read-out: DAT binding affinity Ki): 334 ± 25 nM | Ki ([2]; Table 1): 3160 ± 666 nM | Ki ([3]; Table 1, [125I]RTI-55): 2.69 ± 0.258 µM | Discrimination Ratios [3H]DA reuptake/DAT binding ([4]; Table 1-1): 0.6 | IC50 ([4]; Table 1-1, read-out: Reuptake Inhibition [3H]DA IC50): 206 ± 64 nM | IC50 ([5]; Table 1-1, read-out: Reuptake Inhibition [3H]5-HT IC50): 1.62 ± 0.769 µM | IC50 ([6]; Table 1-1): 0.836 ± 0.093 µM

O=C(NCc1ccc(F)cc1)NC1CCN(CCCCOC(c2ccc(F)cc2)c2ccc(F)cc2)CC1 [Compound 18]
Ki [1]: 1.7 nM | Binding Ratios NET/DAT ([1]; Table 3): 25.3 | Binding Ratios SERT/DAT ([1]; Table 3): 121 | Ki ([2]; Table 3): 206 ± 37 nM | Ki ([3]; Table 3, [125I]RTI-55): 0.043 µM | IC50 ([4]; Reuptake Inhibition [3H]DA IC50, Table 3-1): 1050 ± 291 nM | Discrimination Ratios [3H]DA reuptake/DAT binding ([4]; Table 3-1): 618 | IC50 ([5]; Reuptake Inhibition [3H]5-HT IC50, Table 3-1, bound given in μM): > 10 µM | IC50 ([6]; Table 3-1): 1.67 ± 0.688 µM

Fc1ccc(C(OCCCCN2CCN(c3ccccc3Cl)CC2)c2ccc(F)cc2)cc1 [Compound 32, 1-(2-Chlorophenyl)-4-[4-[bis(4-fluorophenyl)methoxy]butyl]piperazine]
Ki [1]: 67 ± 10 nM | Binding Ratios NET/DAT ([1]; Table 5): 8.1 | Binding Ratios SERT/DAT ([1]; Table 5): 1.3 | Ki ([2]; Table 5, oxalate salts): 88 ± 29 nM | Ki [3, 7]: 0.54 ± 0.18 µM | IC50 [4, 8]: 328 ± 34 nM | Discrimination Ratios (DR) [3H]DA reuptake/DAT binding ([4]; Table 6): 4.9 | IC50 [5, 9]: 0.119 ± 0.033 µM | IC50 ([6]; Table 6): 0.29 ± 0.11 µM

Fc1ccc(C(OCCCCN2CCN(c3cccc(Cl)c3)CC2)c2ccc(F)cc2)cc1 [Compound 33, 1-(3-Chlorophenyl)-4-[4-[bis(4-fluorophenyl)methoxy]butyl]piperazine]
Binding Ratios NET/DAT ([1]; Table 5): 1.7 | Binding Ratios SERT/DAT ([1]; Table 5): 0.8 | Discrimination Ratios (DR) [3H]DA reuptake/DAT binding ([4]; Table 6): 9.5

O=C(CCl)NCC1(c2ccccc2)CCN(CCCCOC(c2ccc(F)cc2)c2ccc(F)cc2)CC1 [Compound 26]
Binding Ratios SERT/DAT ([1]; Table 4): 1.8 | Ki [1, 10]: 316 ± 77 nM | Ki ([2]; Table 4): 580 ± 177 nM | Discrimination Ratios [3H]DA reuptake/DAT binding ([4]; Table 4-1): 1.5 | IC50 [4, 11]: 486 ± 250 nM | IC50 [5, 12]: 0.27 µM

NCC1(c2ccccc2)CCN(CCCCOC(c2ccc(F)cc2)c2ccc(F)cc2)CC1 [Compound 21]
Binding Ratios SERT/DAT ([1]; Table 4): 2.5 | Ki [1, 10]: 140 ± 53 nM | Ki ([2]; Table 4): 347 ± 152 nM | Discrimination Ratios [3H]DA reuptake/DAT binding ([4]; Table 4-1): 1.1 | IC50 [4, 11]: 155 nM | IC50 [5, 12]: 0.337 ± 0.128 µM

Reference: US8772319B2 (priority 2004, dated 2014)
